Assay results: publication PMC7738871, “Covalent modification of Keap1 at Cys77 and Cys434 by pubescenoside a suppresses oxidative stress-induced NLRP3 inflammasome activation in myocardial ischemia-reperfusion injury” (Theranostics, 2021)

Assays:
ROS in H9c2 cells = assay: Intracellular ROS (DCFH-DA), OGD/R H9c2; type: cell-based, rat
Protocol: The fluorescent probe DCFH-DA was used to measure intracellular ROS levels. RAW264.7 cells were treated with 100 μg/mL LPS plus ATP as mentioned above. H9c2 cells underwent OGD/R. After the appropriate treatment, the cells were incubated with DCFH-DA at a concentration of 10 μM for 30 min. The cells were washed with PBS three times. A fluorescence microscope and microplate reader were used to measure the level of DCFH-DA fluorescence at the excitation wavelength of 488 nm and the emission wavelength of 525 nm.

RAW264.7 macrophages = assay: MTT cytotoxicity, RAW264.7; type: cell-based; conditions: RAW264.7, under 240 μM, 48 h
Protocol: Cell viability was determined by MTT assays. PBA was prepared to a stock solution dissolved in dimethyl sulfoxide (DMSO). RAW264.7, H9c2 cells, primary mouse cardiomyocytes were treated with different doses of PBA, and DMSO only as control for 48 h for the toxicity. In addition, H9c2 cells or primary mouse cardiomyocytes were treated with the indicated doses of PBA, diazoxide as positive control, DMSO only as control, then cultured with or without OGD/R treatment. At the end of the experiments, MTT was added into each well at the concentration of 0.5 mg/ml, and incubated at 37 °C for 4 h. After removal of the supernatant, 150 μL of DMSO was added to solubilize the formazan products. And the solution was measured at the absorbance of 490 nm by a spectrophotometer (Thermo Fisher Scientific, MA, USA). The results of the MTT assay in all groups were normalized to the control group with DMSO only treatment.

[1] = system: LAD-induced myocardial ischemia-reperfusion model in mice; assay: LAD-induced myocardial ischemia-reperfusion model; type: in vivo, mouse
Protocol: The experimental procedures and protocols were approved by the Committee on Ethical USE of Animals of International Institute for Translational Chinese Medicine, Guangzhou University of Chinese Medicine (No. IITCM-20180115). Adult male C57BL/6 mice were purchased from the Laboratory Animal Center, Sun Yat-Sen University (Guangzhou, Guangdong, China), and Nrf2 knockout mice were obtained from Riken. Adult male C57BL/6 or Nrf2 knockout mice were treated with 30 mg/kg PBA or an equal volume of vehicle 15 min prior to reperfusion. Mice were divided into 6 groups: (1) Wild-type sham (n = 10): C57BL/6 mice received vehicle, as the sham group; (2) Wild-type AMI/R group (n = 10): C57BL/6 mice received vehicle (i.p.) 15 min before reperfusion; (3) Wild-type AMI/R plus PBA group (n = 10): C57BL/6 mice received 30 mg/kg PBA (i.p.) 15 min before reperfusion; (4) Nrf2 knockout sham (n = 8) : Nrf2 knockout mice received vehicle (i.p.), as in the sham group; (5) Nrf2 knockout AMI/R group (n = 8): Nrf2 knockout mice received vehicle (i.p.) 15 min before reperfusion; (6) Nrf2 knockout AMI/R plus PBA group (n = 8): Nrf2 knockout mice received 30 mg/kg PBA (i.p.) 15 min before reperfusion. PBA was dissolved in 0.9% NaCl buffer containing 2% EtOH. The vehicle was 0.9% NaCl buffer containing 2% EtOH.
The C57BL/6 mice or Nrf2 knockout mice underwent myocardial ischemia-reperfusion injury as described previously. In brief, mice were anaesthetized by i.p. injection of sodium pentobarbital at a dose of 50 mg/kg and ventilated under a pressure-control VentStar R415 ventilator (RWD Life Science Inc., Shenzhen, China). Following thoracotomy between the 3rd and 4th intercostal spaces, the mouse heart was exposed. The LAD was ligated with an 8-0 silk suture and the PE10 tube for 30 min. PBA and vehicle were i.p. injected 15 min prior to reperfusion. After 30 min of ischemia, the suture with PE10 tube was removed. At the end of 24 h of reperfusion, the LAD was relegated, and 1% Evans blue dye was injected to measure the area at risk (AAR). The hearts of the mice were collected, and frozen at -80 °C for 10 min and cut into 5 slices. The slices were incubated with 1% 2,3,5-triphenyltetrazolium chloride (TTC, Santa Cruz, USA) at 37 °C for 15 min and fixed with 4% paraformaldehyde overnight. The slices were captured and the areas of AAR and IA were quantified by using ImageJ software.
Hemodynamic measurements were performed using a PV-loop catheter (Transonic Systems Inc., Ithaca, NY, USA). Hemodynamic measurements were analysed using Ponemah 7700 modules software according to a standardized protocol. The maximum rate of rise of left ventricular pressure increase (+dp/dtmax) and the maximum rate of rise of left ventricular pressure decrease (-dp/dtmax) were calculated for all mice.
Echocardiography was performed on mice at the end of reperfusion. In brief, mice were re-anesthetized with isoflurane and subjected to the Vevo 2100 System (VisualSonics Inc., Toronto, Canada). M-mode was used to obtain LV dimensions in diastole and systole according to the standard procedures and calculations. Left ventricular end systolic diameter (LVESD), left ventricular end diastolic diameter (LVEDD), left ventricular end systolic volume (LVSV) and left ventricular end diastolic volume (LVDV) were measured. And the left ventricular ejection fraction (LVEF) and left ventricular fractional shortening (LVFS) values were calculated using Vevostrain software as parameters indicating cardiac function.

HO-1 and NQO1 [2] = assay: HO-1 and NQO1 protein expression, H9c2; type: cell-based, rat; conditions: H9c2 cells, 24 h, dose-dependent
Protocol: (§1) Total protein was isolated from H9c2 cells, primary mouse cardiomyocytes, RAW264.7 cells and heart tissue using 1X RIPA buffer containing phosphatase and proteinase inhibitors at 4 °C. After measurement of the concentration, the cell lysates were separated by sodium dodecyl sulphate polyacrylamide gel electrophoresis (SDS-PAGE) and transferred to polyvinylidene fluoride (PVDF) membranes. The membranes were blocked in Tris-buffered saline-Tween 20 (TBST) buffer with 5% BSA for 1 h and incubated with primary antibodies (1:1000 dilution) overnight at 4 °C. After the membranes was washed by TBST buffer for three times, they were incubated with horseradish peroxidase (HRP)-conjugated secondary mouse or rabbit antibodies (1:3,000 dilution) at room temperature (RT) for 1.5 h and then detected by SuperEnhanced chemiluminescence (ECL) reaction reagents (GBCBIO Technologies Inc., Guangzhou, Guangdong, China). In brief, drop evenly the ECL working liquid onto the membrane at the ratio of 1 mL ECL working liquid and 10 cm^2 of membrane. After letting the membranes stand for 1-2 min, the bands of the respective proteins were detected with the exposure time of 10 ~60 s.

HO-1 and NQO1 [3] = assay: HO-1 and NQO1 protein expression, RAW264.7; type: cell-based; conditions: RAW264.7, 24 h, dose-dependent
Protocol: as §1

[4] = 30 mg/kg i.p., 24 hours after AMI/R

C=C(COC(=O)C=Cc1ccc(O)c(O)c1)C(O)COC1OC(CO)C(O)C(O)C1O (stereo not drawn) [PBA, pubescenoside A]
OGD/R-induced ROS (ROS in H9c2 cells): significantly suppress | cell toxicity (MTT) (RAW264.7 macrophages): did not exhibit any cell toxicity | myofibrillar structure (H&E staining) ([1]; 30 mg/kg): preserved myofibrillar structure | recruitment of inflammatory cells (H&E staining) ([1]; 30 mg/kg): reduced the recruitment of inflammatory cells | cardiac infarct size ([1]; 30 mg/kg i.p. 15 min before reperfusion, 30 min ischemia, 24 h reperfusion): significantly reduce | level of CK-MB ([1]; 30 mg/kg i.p., 30 min ischemia, 24 h reperfusion, blood, ELISA): significantly reduce | +dp/dtmax [1, 4]: increasing | -dp/dtmax [1, 4]: increasing | LVEF [1, 4]: increasing | LVESD [1, 4]: decreasing | LVFS [1, 4]: increasing | LVSV [1, 4]: decreasing | NLRP3 inflammasome activation in heart tissue ([1]; AMI/R-injured mice, western blot): attenuated | HO-1 and NQO1 expression at the protein level (HO-1 and NQO1 [2]): increased | HO-1 and NQO1 expression at the protein level (HO-1 and NQO1 [3]): increased
